Reference: article PMC10900215 (JACS Au, 2024)
“And” between values parts separate entries of the source, which are not always exact repeats. Equal entries are not always repeated.

What was measured:
METTL3 = molecular target: T1, METTL3 (Homo sapiens, UniProt Q86U44); test: Cellular degradation assay (Western blot), METTL3 in MOLM-13; format: cell-based; details: MOLM-13, 24 h, 2 μM compound
T1 construct: METTL3–14 degradation up to 70% of the endogenous level; endogenous in cells; host or cells: MOLM-13, PC3, DU145
T1 sequence (Q86U44 2-580 limits assumed): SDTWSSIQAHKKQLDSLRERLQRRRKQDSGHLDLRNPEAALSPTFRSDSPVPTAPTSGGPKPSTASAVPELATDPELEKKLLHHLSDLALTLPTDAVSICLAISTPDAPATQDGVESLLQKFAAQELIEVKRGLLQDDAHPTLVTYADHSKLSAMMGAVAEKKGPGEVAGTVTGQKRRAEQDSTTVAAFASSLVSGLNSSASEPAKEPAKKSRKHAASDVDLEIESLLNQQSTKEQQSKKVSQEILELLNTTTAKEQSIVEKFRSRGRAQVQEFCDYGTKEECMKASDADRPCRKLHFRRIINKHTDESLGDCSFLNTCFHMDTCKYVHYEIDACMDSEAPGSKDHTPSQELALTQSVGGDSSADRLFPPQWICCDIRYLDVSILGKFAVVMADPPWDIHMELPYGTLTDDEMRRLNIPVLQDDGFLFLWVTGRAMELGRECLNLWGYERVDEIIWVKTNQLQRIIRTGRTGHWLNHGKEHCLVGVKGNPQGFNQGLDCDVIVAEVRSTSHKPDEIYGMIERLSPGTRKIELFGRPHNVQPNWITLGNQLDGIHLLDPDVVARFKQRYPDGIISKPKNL
T1 sequence (Q9HCE5 whole entry partner): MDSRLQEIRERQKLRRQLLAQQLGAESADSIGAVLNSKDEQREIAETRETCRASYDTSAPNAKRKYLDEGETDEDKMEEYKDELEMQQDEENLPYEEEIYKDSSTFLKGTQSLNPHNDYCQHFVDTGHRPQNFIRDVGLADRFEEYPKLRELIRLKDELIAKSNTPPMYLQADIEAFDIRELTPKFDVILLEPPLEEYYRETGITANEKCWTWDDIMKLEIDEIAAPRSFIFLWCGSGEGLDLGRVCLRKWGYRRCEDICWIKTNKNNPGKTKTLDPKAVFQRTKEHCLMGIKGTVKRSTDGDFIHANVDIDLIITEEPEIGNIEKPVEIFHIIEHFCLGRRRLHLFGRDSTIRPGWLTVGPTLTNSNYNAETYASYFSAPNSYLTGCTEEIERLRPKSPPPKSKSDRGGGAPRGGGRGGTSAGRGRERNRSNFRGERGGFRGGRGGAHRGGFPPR
Method: (§1) MOLM-13, NOMO-1, THP-1, Kasumi-1, PC3, and DU145 cell lines were obtained from DSMZ-German Collection of Microorganisms and Cell Cultures GmbH. Cells were cultured in RPMI 1640 medium (11875093, Thermo Fisher Scientific) containing 10% FBS (16140071, Thermo Fisher Scientific) and 1% penicillin-streptomycin (15140122, Thermo Fisher Scientific) in 5% CO2 at 37 °C in a humidified incubator, with maintained cell densities at 0.5–1 × 10^6 cells/mL. All cell lines were tested negative for mycoplasma contamination (PCR-based assay by Microsynth, Switzerland).
(§2) METTL3 (and METTL14) protein degradation was monitored by Western blot. Cells were treated with the indicated concentration of PROTACs or DMSO control (0.1% (v/v)) for 24h, 37 °C with 5% CO2. Samples were then collected and lysed with RIPA buffer with added protease inhibitors (11697498001, Roche). After SDS-PAGE, proteins were transferred to a nitrocellulose membrane, blocked (with 5% milk, 0.5% BSA in TBST buffer), and incubated overnight with primary antibodies. The following antibodies were used: GAPDH (no. 2118, Cell Signaling, 1:4000), β-actin (ab8226, Abcam, 1:2000), METTL3 (ab195352, Abcam, 1:1000), and METTL14 (ab220031, Abcam, 1:1000). Membranes were scanned using an LI-COR Odyssey DLx imager after incubation with appropriate secondary antibodies (antimouse IgG IRDye 680RD (926–68072, LI-COR, 1:10000) and goat anti-Rabbit IgG IRDye 800CW (926–32211, LI-COR, 1:10000)). Densitometry was performed in Image Studio Lite software and analyzed in GraphPad Prism 9.

METTL14 = test: Cellular degradation assay (Western blot), METTL14 in MOLM-13; format: cell-based, human; details: MOLM-13, 24 h, 2 μM compound
Method: as §1, §2

[1] = molecular target: T2, ternary complex CRBN/PROTAC/METTL3–14 (Homo sapiens, UniProt Q86U44+Q96SW2); test: FRET-based ternary complex formation assay (TCFA); format: binding; details: for TCFA amplitude (mean ± SEM): Hook curve amplitude, fraction of the maximum of compound 16; for ECmax (nM) ± SD: PROTAC concentration at the maximum of the signal in the TCFA; for ECmax: TCFA, peak of the Hook curve
T2 construct: methyltransferase domains (MTD) of METTL3 (residues 354–580); His6 (N, cleaved yes); made in house; host or cells: METTL3-MTD/METTL14-MTD: baculovirus/Sf9; CRBN-TBD: E. coli Rosetta (DE3), co-expressed with BirA
T2 sequence (Q86U44 354-580): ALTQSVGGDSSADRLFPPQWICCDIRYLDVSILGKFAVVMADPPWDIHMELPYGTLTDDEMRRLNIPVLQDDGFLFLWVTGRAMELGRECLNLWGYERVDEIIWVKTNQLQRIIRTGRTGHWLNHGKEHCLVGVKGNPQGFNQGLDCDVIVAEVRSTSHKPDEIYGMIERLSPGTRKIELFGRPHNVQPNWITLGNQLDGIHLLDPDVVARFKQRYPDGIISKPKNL
T2 sequence (Q9HCE5 107-395 partner limits assumed): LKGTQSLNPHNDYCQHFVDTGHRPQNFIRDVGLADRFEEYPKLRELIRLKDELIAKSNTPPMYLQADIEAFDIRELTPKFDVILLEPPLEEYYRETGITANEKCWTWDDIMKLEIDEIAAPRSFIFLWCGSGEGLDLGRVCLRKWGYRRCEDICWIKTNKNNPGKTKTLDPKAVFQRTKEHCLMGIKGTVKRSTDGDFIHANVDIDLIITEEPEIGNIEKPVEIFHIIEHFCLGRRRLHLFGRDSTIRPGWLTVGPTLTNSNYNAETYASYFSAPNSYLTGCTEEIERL
T2 sequence (Q96SW2 318-442): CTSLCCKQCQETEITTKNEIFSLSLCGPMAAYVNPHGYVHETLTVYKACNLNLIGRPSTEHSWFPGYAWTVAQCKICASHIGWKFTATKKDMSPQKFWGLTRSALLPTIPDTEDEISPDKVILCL
Method: For protein expression, suspension cultures of Sf9 cells in […] medium (Thermo Fisher) were infected at a density of 2 × 10^6 mL^–1. […] The complex was further purified by size exclusion chromatography using a Superdex 200 Increase 10/300 GL column (Cytiva) in 20 mM Tris-Cl, pH 8.0, and 200 mM KCl. The complex was aliquoted and flash-frozen in liquid nitrogen and stored at −80 °C until further use.
Ternary complex formation between the PROTACs, METTL3, and CRBN was quantified by a homogeneous time-resolved fluorescence (HTRF)-based enzyme assay. […] Curves of titrations with the PROTACs were plotted in GraphPad Prism 9.5.1 and fitted with a Gaussian function, if appropriate. […] CRBN^TBD-Avi(biotin) was used at a final concentration of 10 nM. […] Anti-GST Eu^3+-labeled antibody (Cisbio, 61GSTKLB) was used at a final concentration of 0.8 nM. The final reaction volume was 20 μL in 50 mM HEPES (pH 7.5), 150 mM NaCl, 0.1% BSA, 100 mM KF. […] The ratio of the emissions [drawing 1] was considered for further analysis. […] The concentrations resulting in the maximum signal (ECmax) and the amplitudes of the Hook curves were determined from the parameters of the Gaussian fit (if appropriate) or as the coordinates of the data-point with the highest TR-FRET signal.
For the ternary complex formation assay (TCFA), one of the protein partners must have a GST-tag and the other a biotin-tag.

[2] = Cell viability assay (CellTiter-Glo) on MOLM-13; format: cell-based; details: human, MOLM-13 cells, average of two biological replicates; for viability at 72 h, […]: 2.5 µM
Method: as §1
Cell viability was determined using a CellTiter-Glo luminescent cell viability assay (Promega) based on the detection of ATP according to the manufacturer’s instructions. 100 μL of the reagent was added to each well and incubated for 10 min at room temperature. […] Background luminescence value was obtained from wells containing the CellTiter-Glo reagent and medium without cells. The resulting data was analyzed in GraphPad Prism 9.

METTL3-14 [3] = molecular target: T3, METTL3-14 (Homo sapiens, UniProt Q86U44); test: biochemical; parameters: with the full-length complex, the recombinant complex construct pFastBacDual-StrepII-GFP-TEV-METTL3-His-TEV-METTL14 was expressed; StrepII (N); GFP (N); TEV site (N); made in house; host or cells: baculovirus/Sf9 insect cells; details: inhibition of catalytic activity of METTL3-14, binary FRET assay
Source text: For determining the half maximal inhibitory concentration (IC50) with the full-length complex, the recombinant complex construct pFastBacDual-StrepII-GFP-TEV-METTL3-His-TEV-METTL14 was expressed using the baculovirus/Sf9 insect cell expression system and purified as described previously.[21]
The inhibitory potencies of the PROTACs for METTL3 were quantified by a homogeneous time-resolved fluorescence (HTRF)-based enzyme assay as previously described.[40]
Target sequence in this assay (Q86U44 whole entry): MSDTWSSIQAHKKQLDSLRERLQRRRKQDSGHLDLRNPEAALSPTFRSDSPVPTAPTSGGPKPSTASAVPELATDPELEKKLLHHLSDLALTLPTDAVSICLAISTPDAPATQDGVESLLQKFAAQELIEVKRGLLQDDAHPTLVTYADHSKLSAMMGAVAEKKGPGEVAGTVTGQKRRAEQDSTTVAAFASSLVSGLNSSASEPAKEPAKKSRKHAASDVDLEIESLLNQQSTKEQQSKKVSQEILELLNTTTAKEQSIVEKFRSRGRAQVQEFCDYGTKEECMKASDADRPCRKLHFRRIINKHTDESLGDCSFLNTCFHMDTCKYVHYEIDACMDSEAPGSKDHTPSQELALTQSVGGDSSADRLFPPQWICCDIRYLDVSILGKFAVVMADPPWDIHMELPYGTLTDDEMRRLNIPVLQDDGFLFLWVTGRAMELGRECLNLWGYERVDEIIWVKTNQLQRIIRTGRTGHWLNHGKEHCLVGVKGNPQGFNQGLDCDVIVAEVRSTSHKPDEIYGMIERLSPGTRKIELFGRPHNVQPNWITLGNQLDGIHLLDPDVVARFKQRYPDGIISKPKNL
Target sequence in this assay (Q9HCE5 whole entry, further chain): as the sequence (Q9HCE5 whole entry partner) above

METTL3-14 [4] = molecular target: T3, METTL3-14; test: Cellular degradation assay (Western blot), METTL3 and/or METTL14 (METTL3–14) in MOLM-13; format: cell-based; parameters: METTL3–14 degradation up to 70% of the endogenous level; endogenous in cells; host or cells: MOLM-13, KASUMI-1, THP-1, NOMO-1; details: MOLM-13, 2 μM, 24 h, Western blot
Method: MOLM-13, NOMO-1, THP-1, Kasumi-1, PC3, and DU145 cell lines were obtained from DSMZ-German Collection of Microorganisms and Cell Cultures GmbH. […] All cell lines were tested negative for mycoplasma contamination (PCR-based assay by Microsynth, Switzerland).
METTL3 (and METTL14) protein degradation was monitored by Western blot. Cells were treated with the indicated concentration of PROTACs or DMSO control (0.1% (v/v)) for 24h, 37 °C with 5% CO2. […] After SDS-PAGE, proteins were transferred to a nitrocellulose membrane, blocked (with 5% milk, 0.5% BSA in TBST buffer), and incubated overnight with primary antibodies. […] Densitometry was performed in Image Studio Lite software and analyzed in GraphPad Prism 9.
Target sequence in this assay (Q86U44 2-580 limits assumed): as the sequence (Q86U44 2-580 limits assumed) above
Target sequence in this assay (Q9HCE5 whole entry partner): as the sequence (Q9HCE5 whole entry partner) above

Row | Structure (SMILES) | MOLM-13 West. blot at 24h 2 μM comp conc. Degradation (%) of METTL3 (METTL3) | MOLM-13 West. blot at 24h 2 μM comp conc. Degradation (%) of METTL14 (METTL14) | TCFA amplitude (mean ± SEM) [1] | ECmax (nM) ± SD [1] | viability at 72 h, 0.6 µM [2] | viability at 72 h, 1.25 µM [2] | viability at 72 h, […] [2] | viability at 72 h, 5 µM [2] | viability at 72 h, 10 µM [2] | IC50 (METTL3-14 [3]) | ECmax [1] | degradation of METTL3 and/or METTL14 (METTL3-14 [4]) | activity / signal in the ternary complex formation assay [1]
1 | CC1(C)CCN(Cc2cc(F)c(N3CC(=O)NC4(CCN(c5cc(NCc6cccc(CNC(=O)CCCCCCCCn7cc(CNc8cccc9c8C(=O)N(C8CCC(=O)NC8=O)C9=O)nn7)c6)ncn5)CC4)C3)cc2F)CC1 (centres unmarked) [Compound 19] | 33% and 33 ± 17% | 40% and 40 ± 16% | 0.9 ± 0.1 | 920 ± 150 nM | 104% | 104% | 102% | 97.1% | 87.6% | 88 ± 21 nM | – | – | –
2 | CC1(C)CCN(Cc2cc(F)c(N3CC(=O)NC4(CCN(c5cc(NCC6CCN(C(=O)CCCNc7ccc8c(c7)C(=O)N(C7CCC(=O)NC7=O)C8=O)CC6)ncn5)CC4)C3)cc2F)CC1 (centres unmarked) [Compound 23] | 50% and 50 ± 12% | 57 ± 8% | 1.0 ± 0.1 | 160 ± 80 nM | 95.3% | 93.3% | 95.2% | 87.3% | 78.2% | 33 ± 12 nM | – | – | –
3 | CC1(C)CCN(Cc2cc(F)c(N3CC(=O)NC4(CCN(c5cc(NCC6CCN(C(=O)CCCCCCCNc7cccc8c7C(=O)N(C7CCC(=O)NC7=O)C8=O)CC6)ncn5)CC4)C3)cc2F)CC1 (centres unmarked) [Compound 25] | 20 ± 9% | 36 ± 7% | 1.2 ± 0.1 | 1200 ± 120 nM | 102% | 94.8% | 92.1% | 87% | 83.2% | 110 ± 10 nM | – | – | –
4 | CC1(C)CCN(Cc2cc(F)c(N3CC(=O)NC4(CCN(c5cc(NCc6cn(CCCCCCCCC(=O)Nc7cccc8c7CN(C7CCC(=O)NC7=O)C8=O)nn6)ncn5)CC4)C3)cc2F)CC1 (centres unmarked) [Compound 26] | 13% and 13 ± 30% | 12 ± 5% | 0.8 ± 0.0 | 190 ± 80 nM | 97.9% | 92.6% | 91.2% | 96.6% | 97.3% | 34 ± 11 nM | – | – | –
5 | CC1(C)CCN(Cc2cc(F)c(N3CC(=O)NC4(CCN(c5cc(NCc6cn(CCCCCCCCCCC(=O)Nc7cccc8c7CN(C7CCC(=O)NC7=O)C8=O)nn6)ncn5)CC4)C3)cc2F)CC1 (centres unmarked) [Compound 27] | 12% and 12 ± 43% | / (Degradation <10% or stabilization) | 0.7 ± 0.0 | 1100 ± 330 nM | 95.2% | 88.7% | 92.6% | 95.5% | 90.9% | 610 ± 230 nM | – | – | –
6 | CC1(C)CCN(Cc2cc(F)c(N3CC(=O)NC4(CCN(c5cc(NCCN6CCN(C(=O)CCCNc7cccc8c7C(=O)N(C7CCC(=O)NC7=O)C8=O)CC6)ncn5)CC4)C3)cc2F)CC1 (centres unmarked) [Compound 29] | 42 ± 14% | 51 ± 11% | 1.0 ± 0.0 | 80 ± 0 nM | 93.7% | 93.5% | 93.4% | 94.5% | 87.4% | – | submicromolar | ≥ 50% | –
7 | CC1(C)CCN(Cc2cc(F)c(N3CC(=O)NC4(CCN(c5cc(NCCN6CCN(C(=O)CCCCCCCNc7cccc8c7C(=O)N(C7CCC(=O)NC7=O)C8=O)CC6)ncn5)CC4)C3)cc2F)CC1 (centres unmarked) [Compound 31] | 49 ± 33% | 55 ± 24% | 0.9 ± 0.0 | 110 ± 40 nM | 95.4% | 88.3% | 88% | 85.2% | 80.2% | – | submicromolar | ≥ 50% | –
8 | CC1(C)CCN(Cc2cc(F)c(N3CC(=O)NC4(CCN(c5cc(NCCN6CCN(c7cccc8c7C(=O)N(C7CCC(=O)NC7=O)C8=O)CC6)ncn5)CC4)C3)cc2F)CC1 (centres unmarked) [Compound 32] | / (Degradation <10% or stabilization) | / (Degradation <10% or stabilization) | – | – ^b | 106% | 106% | 103% | 91.5% | 74.6% | – | – | inactive | inactive
9 | CN1C(=O)CCC(N2C(=O)c3cccc(NCCCCCC(=O)N4CCC(CNc5cc(N6CCC7(CC6)CN(c6cc(F)c(CN8CCC(C)(C)CC8)cc6F)CC(=O)N7)ncn5)CC4)c3C2=O)C1=O (centres unmarked) [me-24] | – | – | – | – | – | – | – | – | – | – | – | did not show any METTL3–14 degradation | –
